Columns and labels:
[1] = biological target: T1, HLA-A*24:02 (Homo sapiens, UniProt P04439, D101N/D140Y/D185E/E176V/E190D/F33S/G103R/G107R/I119L/I121M/I306V/K335N/L105A/L180Q/L300P/N151K/N90K/Q86E/Q94H/R106L/R138H/R89G/T104I/T345S/V100E/W191G/Y123F); experiment: Peptide stability assay on WT HLA-A*24:02 (urea denaturation, W6/32 ELISA); assay type: binding; settings: biotinylated A*24:02 refolded with excess peptide, incubated with 0, 2, 4 or 6 M urea, relative to reference peptide TYTQDFNKF (stability index 100%), result in words
Text: (§1) All HLA-A*02:01- and A*24:02-restricted peptides used in the study were purchased from Genscript at purity of > 80% with quality control by reverse-phase HPLC and mass spectrometry (SC1208). Recombinant HLA-A*02:01 and HLA-A*24:02 molecules were made and re-folded as described elsewhere ([83]). Conformation-dependent W6/32 antibodies used in these assays were produced in vitro from hybridoma cell lines (Integra, Chur, Switzerland). All A*02:01 and A*24:02 binding assays were done as described previously ([83]). In brief, streptavidin donor beads (PerkinElmer, 6760002) and acceptor beads (PerkinElmer, 6762001) conjugated to W6/32 were incubated with A*02:01 or A*24:02 that had been preincubated with varying peptide concentrations. Plates were read by PerkinElmer EnVision and data was analyzed using GraphPad Prism. Peptide stability assays were performed as described previously ([84]). In brief, biotinylated A*02:01 and A*24:02 molecules were refolded with excess peptide then incubated with 0, 2, 4, or 6 M urea. Nondenatured peptides were detected by W6/32 staining using ELISA as described previously ([85]). Stability was calculated as a percentage relative to a reference known binder peptide with an assigned stability index of 100%. […] was used as the reference peptide for A*02:01 and TYTQDFNKF was used as the reference peptide for A*24:02 in both the binding and stability assays.

[2] = biological target: T1, HLA-A*24:02; experiment: Peptide binding assay on WT HLA-A*24:02 (W6/32 donor/acceptor bead assay); settings: recombinant HLA-A*24:02 preincubated with varying peptide concentrations; streptavidin donor beads and W6/32-conjugated acceptor beads; EnVision read-out; reference peptide TYTQDFNKF; result in words
Text: as §1

Sequence | HLA-A*24:02/peptide complex stability [1] | peptide binding to WT A*24:02 [2]
KFKDNVILL [p1 lysine-substituted …] | increased | –
QFKDNVILL [native A*24:02-restricted peptide with subdominant anchors F2 and LΩ] | – | relatively poor binding
TFSDEAVHF | – | weak-binding
VYGFVRACL | – | strong-binding
